{"source": "paper PMC5218480", "about": "(PLoS ONE, 2017)", "test_system": "MV-4-11 cells", "assay": "Gene expression microarray analysis (Affymetrix PrimeView) and GSEA", "type": "cell-based, human", "parameters": "RFU PODN (11730768_x_at) / Fold change /veh PODN (11730768_x_at) / RFU LINC00158 (11744669_a_at) / Fold change /veh LINC00158 (11744669_a_at) / RFU DUSP10 (11751237_a_at) / Fold change /veh DUSP10 (11751237_a_at) / RFU ID3 (11757404_x_at) / Fold change /veh ID3 (11757404_x_at) / RFU PLEKHG5 (11737974_s_at) / Fold change /veh PLEKHG5 (11737974_s_at) / RFU LRRC4B (11730491_at) / Fold change /veh LRRC4B (11730491_at) / RFU GIMAP4 (11747438_a_at) / Fold change /veh GIMAP4 (11747438_a_at) / RFU KRT8 (11758183_x_at) / Fold change /veh KRT8 (11758183_x_at) / RFU CNN1 (11734310_a_at) / Fold change /veh CNN1 (11734310_a_at) / RFU VPS37D (11726825_at) / Fold change /veh VPS37D (11726825_at) / RFU C10orf10 (11716522_x_at) / Fold change /veh C10orf10 (11716522_x_at) / RFU KIR2DL2 /// KIR2DL4 /// KIR2DL5A /// KIR2DL5B /// KIR2DS1 /// KIR2DS2 /// KIR2DS3 /// KIR2DS4 /// KIR3DL3 /// KIR3DL3 /// KIR3DS1 (11738374_at) / Fold change /veh KIR2DL2 /// KIR2DL4 /// KIR2DL5A /// KIR2DL5B /// KIR2DS1 /// KIR2DS2 /// KIR2DS3 /// KIR2DS4 /// KIR3DL3 /// KIR3DL3 /// KIR3DS1 (11738374_at) / RFU C1QL1 (11718748_at) / Fold change /veh C1QL1 (11718748_at) / RFU TMPRSS4 (11747572_a_at) / Fold change /veh TMPRSS4 (11747572_a_at) / RFU HAMP (11756126_x_at) / Fold change /veh HAMP (11756126_x_at) / RFU RNFT2 (11725882_a_at) / Fold change /veh RNFT2 (11725882_a_at) / RFU NR4A2 (11747474_a_at) / Fold change /veh NR4A2 (11747474_a_at) / RFU ABCC12 (11746883_a_at) / Fold change /veh ABCC12 (11746883_a_at) / RFU TMEM136 (11760407_x_at) / Fold change /veh TMEM136 (11760407_x_at) / RFU CLDN22 /// WWC2 (11732394_at) / Fold change /veh CLDN22 /// WWC2 (11732394_at) / RFU HLA-DPB1 (11760878_x_at) / Fold change /veh HLA-DPB1 (11760878_x_at) / RFU SPINT1 (11716480_a_at) / Fold change /veh SPINT1 (11716480_a_at) / RFU GAP43 (11754022_s_at) / Fold change /veh GAP43 (11754022_s_at) / RFU A4GNT (11735810_at) / Fold change /veh A4GNT (11735810_at) / RFU PRB3 (11715151_x_at) / Fold change /veh PRB3 (11715151_x_at) / RFU TUBB4B (11761932_at) / Fold change /veh TUBB4B (11761932_at) / RFU CAPN14 (11732068_a_at) / Fold change /veh CAPN14 (11732068_a_at) / RFU TMCC2 (11721928_a_at) / Fold change /veh TMCC2 (11721928_a_at) / RFU IRGQ (11745062_a_at) / Fold change /veh IRGQ (11745062_a_at) / RFU FAM174B (11720279_a_at) / Fold change /veh FAM174B (11720279_a_at) / RFU TMPRSS4 (11748680_a_at) / Fold change /veh TMPRSS4 (11748680_a_at) / RFU FAM212B (11763350_a_at) / Fold change /veh FAM212B (11763350_a_at) / RFU PLEKHG5 (11743358_a_at) / Fold change /veh PLEKHG5 (11743358_a_at) / RFU ZSCAN30 (11745921_a_at) / Fold change /veh ZSCAN30 (11745921_a_at) / RFU CMKLR1 (11741424_a_at) / Fold change /veh CMKLR1 (11741424_a_at) / RFU LOC101060620 /// MAPK8IP1 (11723275_at) / Fold change /veh LOC101060620 /// MAPK8IP1 (11723275_at) / RFU SPTSSB (11747773_x_at) / Fold change /veh SPTSSB (11747773_x_at) / RFU PRSS12 (11739890_at) / Fold change /veh PRSS12 (11739890_at) / RFU BIN1 (11741810_x_at) / Fold change /veh BIN1 (11741810_x_at) / RFU WNT11 (11732464_a_at) / Fold change /veh WNT11 (11732464_a_at) / RFU C10orf10 (11716521_a_at) / Fold change /veh C10orf10 (11716521_a_at) / RFU C5orf56 (11738089_at) / Fold change /veh C5orf56 (11738089_at) / RFU CYB561 (11721691_x_at) / Fold change /veh CYB561 (11721691_x_at) / RFU ANKRD19P (11752326_a_at) / Fold change /veh ANKRD19P (11752326_a_at) / RFU OR2T12 /// OR2T33 /// OR2T8 (11738714_s_at) / Fold change /veh OR2T12 /// OR2T33 /// OR2T8 (11738714_s_at) / RFU VCAN (11748164_a_at) / Fold change /veh VCAN (11748164_a_at) / RFU JSRP1 (11732532_at) / Fold change /veh JSRP1 (11732532_at) / RFU KRTAP10-11 (11738290_x_at) / Fold change /veh KRTAP10-11 (11738290_x_at) / RFU MYO3A (11730013_a_at) / Fold change /veh MYO3A (11730013_a_at) / RFU EBF3 (11725865_a_at) / Fold change /veh EBF3 (11725865_a_at) / RFU CAMK2N1 (11719241_x_at) / Fold change /veh CAMK2N1 (11719241_x_at) / RFU C5orf56 (11738088_a_at) / Fold change /veh C5orf56 (11738088_a_at) / RFU OLFML3 (11715873_a_at) / Fold change /veh OLFML3 (11715873_a_at) / RFU LOC100653217 /// NTM (11731650_a_at) / Fold change /veh LOC100653217 /// NTM (11731650_a_at) / RFU MAPK11 (11762145_a_at) / Fold change /veh MAPK11 (11762145_a_at) / RFU FIZ1 (11724087_x_at) / Fold change /veh FIZ1 (11724087_x_at) / RFU OASL (11726364_x_at) / Fold change /veh OASL (11726364_x_at) / RFU SOX15 (11748057_x_at) / Fold change /veh SOX15 (11748057_x_at) / RFU CD79A (11719716_a_at) / Fold change /veh CD79A (11719716_a_at) / RFU HIST1H1D (11736915_at) / Fold change /veh HIST1H1D (11736915_at) / RFU CASKIN2 (11723855_a_at) / Fold change /veh CASKIN2 (11723855_a_at) / RFU LOC730098 (11760151_x_at) / Fold change /veh LOC730098 (11760151_x_at) / RFU OR4N2 (11742367_at) / Fold change /veh OR4N2 (11742367_at) / RFU PRRT2 (11749266_a_at) / Fold change /veh PRRT2 (11749266_a_at) / RFU SNX32 (11753110_a_at) / Fold change /veh SNX32 (11753110_a_at) / RFU CDHR5 (11726645_a_at) / Fold change /veh CDHR5 (11726645_a_at) / RFU RCAN1 (11760418_a_at) / Fold change /veh RCAN1 (11760418_a_at) / RFU FAM167A (11723789_a_at) / Fold change /veh FAM167A (11723789_a_at) / RFU FAM26E (11764081_at) / Fold change /veh FAM26E (11764081_at) / RFU ISYNA1 (11749810_s_at) / Fold change /veh ISYNA1 (11749810_s_at) / RFU ACY1 (11761880_at) / Fold change /veh ACY1 (11761880_at) / RFU 11764098_at / Fold change /veh 11764098_at / RFU SAMD14 (11745864_x_at) / Fold change /veh SAMD14 (11745864_x_at) / RFU NPB (11741838_a_at) / Fold change /veh NPB (11741838_a_at) / RFU TMPRSS6 (11731388_a_at) / Fold change /veh TMPRSS6 (11731388_a_at) / RFU KRTAP10-2 (11738614_at) / Fold change /veh KRTAP10-2 (11738614_at) / RFU ARHGAP8 /// PRR5-ARHGAP8 (11727945_x_at) / Fold change /veh ARHGAP8 /// PRR5-ARHGAP8 (11727945_x_at) / RFU KRTAP5-7 /// NADSYN1 (11734609_at) / Fold change /veh KRTAP5-7 /// NADSYN1 (11734609_at) / RFU RASL12 (11751679_a_at) / Fold change /veh RASL12 (11751679_a_at) / RFU CDKN2B (11736163_a_at) / Fold change /veh CDKN2B (11736163_a_at) / RFU PRF1 (11729649_at) / Fold change /veh PRF1 (11729649_at) / RFU, ZNF638 /// ZNF638-IT1 / Fold change vs veh, ZNF638 /// ZNF638-IT1 / RFU, PANK3 / Fold change vs veh, PANK3 / RFU, SH3YL1 / Fold change vs veh, SH3YL1 / RFU, ZEB2 / Fold change vs veh, ZEB2 / RFU, NRIP1 / Fold change vs veh, NRIP1 / RFU, PTTG1IP / Fold change vs veh, PTTG1IP / RFU, CAPN2 / Fold change vs veh, CAPN2 / RFU, MED14 / Fold change vs veh, MED14 / RFU, SNORA58 / Fold change vs veh, SNORA58 / RFU, C1orf63 / Fold change vs veh, C1orf63 / RFU, LRRFIP1 / Fold change vs veh, LRRFIP1 / RFU, NDUFAF7 / Fold change vs veh, NDUFAF7 / RFU, SLC12A2 / Fold change vs veh, SLC12A2 / RFU, IBTK / Fold change vs veh, IBTK / RFU, ESF1 / Fold change vs veh, ESF1 / Fold change vs veh, TMEM50B / RFU, TAOK1 / Fold change vs veh, TAOK1 / RFU, ACBD3 / Fold change vs veh, ACBD3 / RFU, TMA16 / Fold change vs veh, TMA16 / RFU, RWDD3 / Fold change vs veh, RWDD3 / RFU, BCAT1 / Fold change vs veh, BCAT1 / RFU, EDEM3 / Fold change vs veh, EDEM3 / RFU, TMEM33 / Fold change vs veh, TMEM33 / RFU, WDR75 / Fold change vs veh, WDR75 / RFU, AHCTF1 / Fold change vs veh, AHCTF1 / RFU, TFRC / Fold change vs veh, TFRC / RFU, ZDHHC17 / Fold change vs veh, ZDHHC17 / RFU, NOM1 / Fold change vs veh, NOM1 / RFU, ARL8B / Fold change vs veh, ARL8B / RFU, ZBTB11 / Fold change vs veh, ZBTB11 / RFU, TAMM41 / Fold change vs veh, TAMM41 / RFU, KIAA1704 /// LOC100996395 / Fold change vs veh, KIAA1704 /// LOC100996395 / RFU, ING1 / Fold change vs veh, ING1 / RFU, TRMT61B / Fold change vs veh, TRMT61B / RFU, FUBP3 / Fold change vs veh, FUBP3 / RFU, TP53 / Fold change vs veh, TP53 / RFU, TNKS2 / Fold change vs veh, TNKS2 / RFU, ZFP14 / Fold change vs veh, ZFP14 / RFU, ACTR2 / Fold change vs veh, ACTR2 / RFU, PPP3R1 / Fold change vs veh, PPP3R1 / RFU, PIK3R1 / Fold change vs veh, PIK3R1 / RFU, HNRNPA1 / Fold change vs veh, HNRNPA1 / RFU, RNF170 / Fold change vs veh, RNF170 / RFU, ZNF28 / Fold change vs veh, ZNF28 / RFU, RNGTT / Fold change vs veh, RNGTT / RFU, OGT / Fold change vs veh, OGT / RFU, BRD1 / Fold change vs veh, BRD1 / RFU, MARS / Fold change vs veh, MARS / RFU, ZNF655 / Fold change vs veh, ZNF655 / RFU, FAHD1 / Fold change vs veh, FAHD1 / RFU, BDP1 / Fold change vs veh, BDP1 / RFU, LRRCC1 / Fold change vs veh, LRRCC1 / RFU, ARID1A / Fold change vs veh, ARID1A / RFU, ZNF146 / Fold change vs veh, ZNF146 / RFU, ZNF330 / Fold change vs veh, ZNF330 / RFU, GPN3 / Fold change vs veh, GPN3 / RFU, C9orf123 / Fold change vs veh, C9orf123 / RFU, N4BP2L2 / Fold change vs veh, N4BP2L2 / RFU, ARFIP1 / Fold change vs veh, ARFIP1 / RFU, FAM179B / Fold change vs veh, FAM179B / RFU, BCL10 / Fold change vs veh, BCL10 / RFU, UHRF1BP1L / Fold change vs veh, UHRF1BP1L / RFU, BET1 / Fold change vs veh, BET1 / RFU, CNOT2 / Fold change vs veh, CNOT2 / RFU, ZNF268 / Fold change vs veh, ZNF268 / Fold change vs veh, ZNF507 / RFU, DGCR2 / Fold change vs veh, DGCR2 / RFU, WDSUB1 / Fold change vs veh, WDSUB1 / Fold change vs veh, HSP90B1 /// MIR3652 / RFU, ADSS / Fold change vs veh, ADSS / RFU, GK / Fold change vs veh, GK / RFU, ZNF148 / Fold change vs veh, ZNF148 / RFU, TAF9 / Fold change vs veh, TAF9 / RFU, SLC1A5 / Fold change vs veh, SLC1A5 / RFU, SLMO2 / Fold change vs veh, SLMO2 / RFU, ABCC4 / Fold change vs veh, ABCC4 / RFU, LOC101060439 /// RAP1B / Fold change vs veh, LOC101060439 /// RAP1B / RFU, RFX7 / Fold change vs veh, RFX7 / RFU, GTPBP10 / Fold change vs veh, GTPBP10 / RFU, CNEP1R1 / Fold change vs veh, CNEP1R1 / RFU, BIVM-ERCC5 /// ERCC5 / Fold change vs veh, BIVM-ERCC5 /// ERCC5 / RFU, ILF3 / Fold change vs veh, ILF3 / RFU 11762660_at / Fold change /veh 11762660_at / RFU VCAN (11757783_s_at) / Fold change /veh VCAN (11757783_s_at) / RFU DDX43 (11728927_at) / Fold change /veh DDX43 (11728927_at) / RFU KRT8 (11758188_x_at) / Fold change /veh KRT8 (11758188_x_at) / RFU NKD1 (11759106_at) / Fold change /veh NKD1 (11759106_at) / RFU SRD5A1 (11742802_a_at) / Fold change /veh SRD5A1 (11742802_a_at) / RFU TPSAB1 /// TPSB2 (11721975_s_at) / Fold change /veh TPSAB1 /// TPSB2 (11721975_s_at) / RFU GSTM3 (11746129_a_at) / Fold change /veh GSTM3 (11746129_a_at) / RFU IL23R (11737362_x_at) / Fold change /veh IL23R (11737362_x_at) / RFU TMEM51 (11727254_a_at) / Fold change /veh TMEM51 (11727254_a_at) / RFU PIWIL2 (11732686_x_at) / Fold change /veh PIWIL2 (11732686_x_at) / RFU ORM1 (11744905_x_at) / Fold change /veh ORM1 (11744905_x_at) / RFU CCDC152 (11743942_at) / Fold change /veh CCDC152 (11743942_at) / RFU ECM1 (11717891_a_at) / Fold change /veh ECM1 (11717891_a_at) / RFU IL23R (11748794_a_at) / Fold change /veh IL23R (11748794_a_at) / RFU TNFAIP8L3 (11732012_x_at) / Fold change /veh TNFAIP8L3 (11732012_x_at) / RFU MBOAT4 (11741988_at) / Fold change /veh MBOAT4 (11741988_at) / RFU 11764193_at / Fold change /veh 11764193_at / RFU TMEM53 (11763286_at) / Fold change /veh TMEM53 (11763286_at) / RFU MAGEB2 (11727129_at) / Fold change /veh MAGEB2 (11727129_at) / RFU TMEM200A (11744735_a_at) / Fold change /veh TMEM200A (11744735_a_at) / RFU CCDC152 (11751479_a_at) / Fold change /veh CCDC152 (11751479_a_at) / RFU FAM211A (11726209_a_at) / Fold change /veh FAM211A (11726209_a_at) / RFU RGS16 (11746705_a_at) / Fold change /veh RGS16 (11746705_a_at) / RFU VCAN (11755009_s_at) / Fold change /veh VCAN (11755009_s_at) / RFU RHOB (11743442_s_at) / Fold change /veh RHOB (11743442_s_at) / RFU RGS16 (11720943_a_at) / Fold change /veh RGS16 (11720943_a_at) / RFU RGS16 (11720944_at) / Fold change /veh RGS16 (11720944_at) / RFU, VPS4B / Fold change vs veh, VPS4B / RFU, CREB1 / Fold change vs veh, CREB1 / RFU, DNAJC13 / Fold change vs veh, DNAJC13 / RFU, GNAQ / Fold change vs veh, GNAQ / RFU, CDK5R1 / Fold change vs veh, CDK5R1 / RFU, ZRANB3 / Fold change vs veh, ZRANB3 / RFU, CUL4A / Fold change vs veh, CUL4A / RFU, CCNY / Fold change vs veh, CCNY / RFU, UFL1 / Fold change vs veh, UFL1 / RFU, COG3 / Fold change vs veh, COG3 / RFU, DIAPH2 / Fold change vs veh, DIAPH2 / RFU, SKA2 / Fold change vs veh, SKA2 / RFU, AFF3 / Fold change vs veh, AFF3 / RFU, LMF1 / Fold change vs veh, LMF1 / RFU, IPO11 / Fold change vs veh, IPO11 / RFU, DFFB / Fold change vs veh, DFFB / RFU, FOXP1 / Fold change vs veh, FOXP1 / RFU, CARD8 / Fold change vs veh, CARD8 / RFU, STRN3 / Fold change vs veh, STRN3 / RFU, ADK / Fold change vs veh, ADK / RFU, RASSF2 / Fold change vs veh, RASSF2 / RFU, WIPF1 / Fold change vs veh, WIPF1 / RFU, LARP1B / Fold change vs veh, LARP1B / RFU, RASA1 / Fold change vs veh, RASA1 / RFU, RB1 / Fold change vs veh, RB1 / RFU, PPFIA1 / Fold change vs veh, PPFIA1 / RFU, MAT2A / Fold change vs veh, MAT2A / RFU, CCT5 / Fold change vs veh, CCT5 / RFU, WDR92 / Fold change vs veh, WDR92 / RFU, CUX1 / Fold change vs veh, CUX1 / RFU, TTC7A / Fold change vs veh, TTC7A / RFU, TMEM135 / Fold change vs veh, TMEM135 / RFU, DEPTOR / Fold change vs veh, DEPTOR / RFU, CPM / Fold change vs veh, CPM / RFU, DNAJB6 / Fold change vs veh, DNAJB6 / RFU, CACNA2D3 / Fold change vs veh, CACNA2D3 / RFU, DTX4 / Fold change vs veh, DTX4 / RFU, TFCP2 / Fold change vs veh, TFCP2 / RFU, GMCL1 /// GMCL1P1 / Fold change vs veh, GMCL1 /// GMCL1P1 / RFU, AEBP2 / Fold change vs veh, AEBP2 / RFU, SNHG1 /// SNORD22 /// SNORD25 /// SNORD26 /// SNORD27 /// SNORD28 /// SNORD29 /// SNORD31 / Fold change vs veh, SNHG1 /// SNORD22 /// SNORD25 /// SNORD26 /// SNORD27 /// SNORD28 /// SNORD29 /// SNORD31 / Fold change (Aza/veh), C12orf56 (ProbeSet 11735607_a_at) / Fold change (ACY-1035/veh), C12orf56 (ProbeSet 11735607_a_at) / Fold change (Aza/veh), FGFR1OP (ProbeSet 11751329_s_at) / Fold change (ACY-1035/veh), FGFR1OP (ProbeSet 11751329_s_at) / Fold change (Aza/veh), VPS36 (ProbeSet 11739960_a_at) / Fold change (ACY-1035/veh), VPS36 (ProbeSet 11739960_a_at) / RFU SYPL1 (11715823_x_at) / Fold change /veh SYPL1 (11715823_x_at) / RFU IGFBP7 (11715501_s_at) / Fold change /veh IGFBP7 (11715501_s_at) / RFU REEP3 (11722064_at) / Fold change /veh REEP3 (11722064_at) / RFU IGLL1 (11728026_x_at) / Fold change /veh IGLL1 (11728026_x_at): dose or concentration left out as unconfirmed", "conditions": "MV-4-11 cells, 48 hours", "data": [{"smiles": "Nc1ncn([C@@H]2O[C@H](CO)[C@@H](O)[C@H]2O)c(=O)n1", "note": "[azacitidine]", "values": [{"measurement": "Fold change /veh MAPK11 (11762145_a_at)", "result": 1.03}]}]}
